# Laboratory results taken from patent US9750714B2, “Pharmaceutical use of 3, 4-bis-benzylsulfonylbutyronitrile” (Olatec Therapeutics LLC, priority 2013, dated 2017).
# Key:
# [1] = test system: arachidonic acid-induced ear swelling; test: topical arachidonic acid-induced ear swelling model in mice; format: in vivo
# Experimental: The test compound, indomethacin (positive control), and vehicle were evaluated for anti-inflammatory activity in a topical arachidonic acid-induced ear swelling model in mice. Male ICR mice weighing 22±2 g were used and randomly divided; the test compound and vehicle control had 10 mice, and indomethacin had 5 mice. Arachidonic Acid (0.5 mg in 20 μl of acetone:ethanol/1:1) was applied topically to the anterior and posterior surfaces of the right ear of each mouse. Test substances and vehicle, as listed in Table 2 were similarly applied 30 min before and 15 min after arachidonic acid application. The thickness of the right ear and the left ear was measured and the difference calculated as an indication of the inflammation in the right ear. Ear swelling was measured by a Dyer model micrometer gauge at 60 and 90 minutes after arachidonic acid application as an index of inflammation. Percent inhibition was calculated according to the formula: Ic−It/Ic×100, where Ic and It refers to increase of ear thickness (mm) in control and treated mice, respectively. ANOVA and Dunnett's test were employed to ascertain significant difference between vehicle control and treated groups. Significance is set at P<0.05 level.
# [2] = test system: tail flick response to heat stimulus; test: tail flick test in mice (49° C. water bath); format: in vivo
# Experimental: The tail flick test is a test of the pain response in animals. The tail flick test is used in basic pain research and to measure the effectiveness of analgesics, by observing the tail flick reaction to heat in an animal. This test assesses the nociceptive response to a local pain stimulus, and the ability of a drug to inhibit this response.
# Vehicle control (DMSO) and test compound 3, 4-bis-benzylsulfonylbutanenitrile in DMSO were administered by oral gavage to mice with a volume of 5 mL/kg, immediately prior to testing, at time zero. The test compound was administered at a dosage of 500 mg/kg in DMSO. Positive control morphine in water was administered at time zero by subcutaneous injection at 8 mg/kg to mice. […] The purpose of morphine is […] to serve as a comparison with the test compound. Each group had 10 mice.
# The response of mice to heat stimulus was evaluated by measuring the time of tail-flick or tail-flick latency from 49° C. water bath. Briefly, the animal was held with its tail hanging down. Approximately 2 inches of the tail was immersed in a beaker of water at 38±1° C. for about 30 seconds, and this was done twice to acclimate the animal to the procedure.
# Subsequently, approximately 2 inches of the tail was immersed in a beaker of water at 49±1° C., at which point a timer was started.
# Tail flick measurements were made at 0, 30, 60, and 120 minutes post administration of the dosage of test compound, vehicle, or morphine. An ANOVA was done, and if p<0.05, a Dunnett's t test was employed to calculate significant difference between vehicle control and test compound treated groups. A pairwise Student's t test was used to calculate differences between the morphine group and the control group. […] Analysis with p-values<0.05 is considered significant.
compound,measurement,setting,value
"N#CCC(CS(=O)(=O)Cc1ccccc1)S(=O)(=O)Cc1ccccc1 (stereo not drawn) [3,4-bis-benzylsulfonylbutanenitrile, 3,4-bis-benzylsulfonylbutanenitrile]",anti-inflammatory activity in the mouse ear swelling model (in words),"[1]; applied topically, inflammation induced by arachidonic acid",anti-inflammatory
same,tail flick latency compared with vehicle-treated mice,"[2]; test compound 500 mg/kg in DMSO, oral, 120 minutes post dosing",statistically significant
"COc1ccc2c(c1)c(CC(=O)O)c(C)n2C(=O)c1ccc(Cl)cc1 [Indomethacin, reference compound]",% Inhibition of ear swelling,"[1]; topical, applied 30 min before and 15 min after arachidonic acid, measured at 90 minutes, relative to vehicle, indomethacin 14 mM (0.1 mg/20 μL), test compound 375 mM (2.8 mg/20 μL)",58%
CN1CC[C@]23c4c5ccc(O)c4O[C@H]2[C@@H](O)C=C[C@H]3[C@H]1C5 [morphine],tail flick latency compared with vehicle-treated mice,"[2]; morphine 8 mg/kg subcutaneous, 30 minutes post dosing",statistically significant
same,tail flick latency compared with vehicle-treated mice,"[2]; morphine 8 mg/kg subcutaneous, 60 minutes post dosing",statistically significant
same,tail flick latency compared with vehicle-treated mice,"[2]; morphine 8 mg/kg subcutaneous, 120 minutes post dosing",not
